Source: patent CN108864033A, “苯基取代的酰肼衍生物及其用途” (Guangdong HEC Pharmaceutical Co Ltd, priority 2017, dated 2018)

tested on: glutamate-induced oxidative stress injury of HT22 cells (谷氨酸诱导的HT22细胞氧化应激损伤); assay: Protection of HT22 cells against glutamate-induced oxidative stress injury (LDH release, cell viability); type: cell-based; conditions: HT-22, HT22 mouse hippocampal neuronal cells, 15 mM glutamate, 24 h, 10 concentrations, 0.25% DMSO

| Structure (SMILES) | EC50 [nM] |
| --- | --- |
| Cc1ccc(N(/N=C/c2ccc(Cl)cc2Cl)C(=O)C(F)(F)F)c(C)c1 [实施例2, (E)-N'-(2,4-二氯苯亚甲基)-N-(2,4-二甲苯基)-2,2,2-三氟乙酰肼] | 130 |
| Cc1ccc(N(/N=C/c2ccc3c(c2)OCO3)C(=O)C(F)(F)F)c(C)c1 [实施例1, (E)-N'-(苯并-1,3-二恶环戊烷-5-亚甲基)-N-(2,4-二甲苯基)-2,2,2-三氟乙酰肼] | 130 |
| CC(=O)N(/N=C/c1ccc2c(c1)OCO2)c1ccc(C)cc1C [实施例3, (E)-N'-(苯并-1,3-二恶环戊烷-5-亚甲基)-N-(2,4-二甲苯基)乙酰肼] | 4120 |
